Key:
Pythium aphanidermatum = test: Antimicrobial test (mycelia growth inhibition); assay type: cell-based; conditions: compound concentration of 1 ppm, PSY medium, 25° C., days 3 to 7 of culturing, read-out: mycelia growth inhibition rate
Procedure: The compound according to the present invention was dissolved in dimethylsulfoxide and diluted to double the prescribed concentration in a 96-well microplate using PSY medium to obtain a drug solution. On the other hand, a diluted dimethylsulfoxide solution was prepared using PSY medium for use as an untreated group.
A suspension of liquid-cultured test microorganisms (Pythium aphanidermatum) was mixed with an equal volume of the drug solution and cultured in a dark location at 25° C. Mycelia growth was observed on days 3 to 7 of culturing to determine mycelia growth inhibition rates.

[1] = test system: tomato late blight pathogen (Phytophthora infestans); test: whole plant or invertebrate; assay type: in vivo; conditions: 96 h, read-out: control value
Pythium ultimum = test: Cucumber damping-off (PU) control test; assay type: in vivo; conditions: Globisporangium ultimum, 168 h, soil irrigated with 30 ml emulsion at active ingredient concentration of 100 ppm, ratio of healthy seedlings on day 7 after planting vs untreated group
Procedure: 40 ml of sterile soil were placed in plastic cups followed by leveling the surface of the soil. The soil was then irrigated with 30 ml of the aforementioned emulsion of Preparation Example 2 at an active ingredient concentration of 100 ppm. Following irrigation, cucumbers (variety: Sagami Hanjiro) were planted in the soil and covered with 20 ml of contaminated soil (containing Pythium ultimum) from above. The cups were then placed in plastic bags and allowed to stand undisturbed for 3 days in a constant temperature room at 25° C. (dark location […]). Next, the plants were removed from the bags and held in a constant temperature room at 25° C. using a light-dark cycle of 12 hours. On day 7 after planting, the ratios of healthy seedlings were compared between an untreated group and treated group to calculate control effects (control values).

| SMILES | inhibition at 1 ppm (Pythium aphanidermatum) | pest or weed control at 100 µg/mL [1] | pest or weed control at 100 ppm (Pythium ultimum) |
| --- | --- | --- | --- |
| CCOC(OCC)C(=O)Nc1cccc(CO/N=C(/c2ccccc2)c2nnnn2C)n1 [a-1] | ≥ 50% | ≥ 70% | ≥ 50% |
| COC(CC(=O)Nc1cccc(CO/N=C(/c2ccccc2)c2nnnn2C)n1)OC [a-2, (Z)-(1-methyl-1H-tetrazol-5-yl)phenylmethanone-o-[2-(2,2-dimethoxyethanecarbonylamino)pyridin-6-ylmethyl]oxime] | ≥ 50% | ≥ 70% | ≥ 50% |
| Cn1nnnc1/C(=N\OCc1cccc(NC(=O)C2OCCO2)n1)c1ccccc1 [a-4] | ≥ 50% | ≥ 70% | ≥ 50% |
| Cn1nnnc1/C(=N\OCc1cccc(NC(=O)C2(C)OCCO2)n1)c1ccccc1 [a-5] | ≥ 50% |  |  |
| CCOC(CC(=O)Nc1cccc(CO/N=C(/c2ccccc2)c2nnnn2C)n1)OCC [a-6] | ≥ 50% | ≥ 70% | ≥ 50% |
| Cn1nnnc1/C(=N\OCc1cccc(NC(=O)CC2OCCO2)n1)c1ccccc1 [a-7] | ≥ 50% | ≥ 70% | ≥ 50% |
| CC(C)OC(OC(C)C)C(=O)Nc1cccc(CO/N=C(/c2ccccc2)c2nnnn2C)n1 [a-8] |  | ≥ 70% | ≥ 50% |
| CCCOC(OCCC)C(=O)Nc1cccc(CO/N=C(/c2ccccc2)c2nnnn2C)n1 [a-9] | ≥ 50% | ≥ 70% | ≥ 50% |
| CC1COC(CC(=O)Nc2cccc(CO/N=C(/c3ccccc3)c3nnnn3C)n2)O1 (stereo not shown) [a-10] | ≥ 50% | ≥ 70% |  |
| CCC1COC(CC(=O)Nc2cccc(CO/N=C(/c3ccccc3)c3nnnn3C)n2)O1 (stereo not shown) [a-11] | ≥ 50% | ≥ 70% |  |
| CC1OC(CC(=O)Nc2cccc(CO/N=C(/c3ccccc3)c3nnnn3C)n2)OC1C (stereo not shown) [a-12] | ≥ 50% | ≥ 70% |  |
| CC(C(=O)Nc1cccc(CO/N=C(/c2ccccc2)c2nnnn2C)n1)C1(C)OCCO1 (stereo not shown) [a-13] |  | ≥ 70% |  |
| Cn1nnnc1/C(=N\OCc1cccc(NC(=O)CC2OCC(C)(C)CO2)n1)c1ccccc1 [a-15] | ≥ 50% | ≥ 70% |  |
| Cn1nnnc1/C(=N\OCc1cccc(NC(=O)CC2(C)OCCO2)n1)c1ccccc1 [a-16] |  | ≥ 70% |  |
| COC(CCC(=O)Nc1cccc(CO/N=C(/c2ccccc2)c2nnnn2C)n1)OC [a-17] | ≥ 50% | ≥ 70% | ≥ 50% |
| CCOC(C)(OCC)C(=O)Nc1cccc(CO/N=C(/c2ccccc2)c2nnnn2C)n1 [a-18] |  | ≥ 70% | ≥ 50% |
| COC(C)(OC)C(=O)Nc1cccc(CO/N=C(/c2ccccc2)c2nnnn2C)n1 [a-19] | ≥ 50% | ≥ 70% |  |
| CCOC(OCC)C(C)C(=O)Nc1cccc(CO/N=C(/c2ccccc2)c2nnnn2C)n1 (stereo not shown) [a-20] | ≥ 50% | ≥ 70% | ≥ 50% |
| CCOC(OCC)C(C)(C)C(=O)Nc1cccc(CO/N=C(/c2ccccc2)c2nnnn2C)n1 [a-21] |  | ≥ 70% | ≥ 50% |
| CCSC(SCC)C(=O)Nc1cccc(CO/N=C(/c2ccccc2)c2nnnn2C)n1 [a-22] | ≥ 50% | ≥ 70% | ≥ 50% |
| Cn1nnnc1/C(=N\OCc1cccc(NC(=O)C2SCCCS2)n1)c1ccccc1 [a-23] | ≥ 50% | ≥ 70% | ≥ 50% |
| Cn1nnnc1/C(=N\OCc1cccc(NC(=O)C2(C)OCCCO2)n1)c1ccccc1 [a-24, (Z)-(1-methyl-1H-tetrazol-5-yl)phenylmethanone-o-[2-(2-methyl-1,3-dioxan-2-yl-carbonylamino)pyridin-6-ylmethyl]oxime] | ≥ 50% | ≥ 70% |  |
| Cn1nnnc1/C(=N\OCc1cccc(NC(=O)C2(C)OCCCCO2)n1)c1ccccc1 [a-25] | ≥ 50% | ≥ 70% | ≥ 50% |
| CCOC(SCC)C(=O)Nc1cccc(CO/N=C(/c2ccccc2)c2nnnn2C)n1 (stereo not shown) [a-26] | ≥ 50% | ≥ 70% | ≥ 50% |

| SMILES | inhibition at 1 ppm (Pythium aphanidermatum) | pest or weed control at 100 µg/mL [1] | pest or weed control at 100 ppm (Pythium ultimum) |
| --- | --- | --- | --- |
| Cn1nnnc1/C(=N\OCc1cccc(NC(=O)C2(C)OCCCCCO2)n1)c1ccccc1 [a-27] | ≥ 50% | ≥ 70% | ≥ 50% |
| Cn1nnnc1/C(=N\OCc1cccc(NC(=O)C2(C)OCCOCCO2)n1)c1ccccc1 [a-28] | ≥ 50% | ≥ 70% | ≥ 50% |
| COCCOC(C)(OCCOC)C(=O)Nc1cccc(CO/N=C(/c2ccccc2)c2nnnn2C)n1 [a-32] |  | ≥ 70% |  |
| COCCC(=O)Nc1cccc(CO/N=C(/c2ccccc2)c2nnnn2C)n1 [b-1] | ≥ 50% | ≥ 70% |  |
| COC(C)C(=O)Nc1cccc(CO/N=C(/c2ccccc2)c2nnnn2C)n1 (stereo not shown) [b-4] | ≥ 50% |  |  |
| CCOCC(C)(COCC)C(=O)Nc1cccc(CO/N=C(/c2ccccc2)c2nnnn2C)n1 [b-5] | ≥ 50% |  |  |
| COCCC(C)C(=O)Nc1cccc(CO/N=C(/c2ccccc2)c2nnnn2C)n1 (stereo not shown) [b-9] |  |  | ≥ 50% |
| COCCCCC(=O)Nc1cccc(CO/N=C(/c2ccccc2)c2nnnn2C)n1 [b-11] |  |  | ≥ 50% |
| Cn1nnnc1/C(=N\OCc1cccc(NC(=O)OCC2(C)COCOC2)n1)c1ccccc1 [c-2] | ≥ 50% | ≥ 70% |  |
| Cn1nnnc1/C(=N\OCc1cccc(NC(=O)OCC2(C)COC(C)(C)OC2)n1)c1ccccc1 [c-3] | ≥ 50% | ≥ 70% |  |
| CC(OC(=O)Nc1cccc(CO/N=C(/c2ccccc2)c2nnnn2C)n1)C1OCCCO1 (stereo not shown) [c-11] | ≥ 50% | ≥ 70% |  |
| Cn1nnnc1/C(=N\OCc1cccc(NC(=O)OC(C)(C)C2OCCCO2)n1)c1ccccc1 [c-12] | ≥ 50% | ≥ 70% |  |
| CCOC1(OC(=O)Nc2cccc(CO/N=C(/c3ccccc3)c3nnnn3C)n2)CC1 [d-2] |  | ≥ 70% |  |
| Cn1nnnc1/C(=N\OCc1cccc(NC(=O)OCC2CO2)n1)c1ccccc1 (stereo not drawn) [d-5] |  | ≥ 70% |  |
| Cn1nnnc1/C(=N\OCc1cccc(NC(=O)OC2(C)CCOCC2)n1)c1ccccc1 [d-6] | ≥ 50% | ≥ 70% |  |
| Cn1nnnc1/C(=N\OCc1cccc(NC(=O)OC2(C)CCSCC2)n1)c1ccccc1 [d-7] |  | ≥ 70% |  |
| CCOCCCC(C)(C)OC(=O)Nc1cccc(CO/N=C(/c2ccccc2)c2nnnn2C)n1 [d-9] | ≥ 50% | ≥ 70% |  |
| COCCC(C)(C)OC(=O)Nc1cccc(CO/N=C(/c2ccccc2)c2nnnn2C)n1 [d-10] |  | ≥ 70% | ≥ 50% |
| COCCCCOC(=O)Nc1cccc(CO/N=C(/c2ccccc2)c2nnnn2C)n1 [d-11] | ≥ 50% | ≥ 70% |  |
| COCCCOC(=O)Nc1cccc(CO/N=C(/c2ccccc2)c2nnnn2C)n1 [d-12] | ≥ 50% | ≥ 70% |  |
| CCOC(OCC)C(=O)Nc1cccc(CO/N=C(/c2cccc(F)c2)c2nnnn2C)n1 [e-1] | ≥ 50% | ≥ 70% |  |
| CCOC(OCC)C(=O)Nc1cccc(CO/N=C(/c2ccc(F)c(C)c2)c2nnnn2C)n1 [e-2] | ≥ 50% | ≥ 70% |  |
| CCOC(OCC)C(=O)Nc1ccc(Cl)c(CO/N=C(/c2ccccc2)c2nnnn2C)n1 [e-3] | ≥ 50% | ≥ 70% |  |
